Converted amounts (≈) assume the structure as drawn. Read-outs that look alike come from different tables or passages of the source.
Experiments:
Format in all cases: cell-based
[1] = test system: Mycobacterium smegmatis DSM 43465; test: MIC for rapidly growing mycobacteria by broth microdilution; settings: Mycolicibacterium smegmatis, DSM43465
Protocol: (§1) For rapidly growing mycobacteria, the MIC determination was carried out following the method of broth microdilution described by Swenson [cf. J. M. Swenson, C. Thornberry, U. A. Silcox, Rapidly growing mycobacteria. Testing of suceptibility to 34 antimicrobial agents by broth microdilution. Antimicrobial Agents and Chemotherapy Vol. 22, 186-192 (1982)]. A deviation from this was the brain-heart extract medium treated with 0.1% by volume of Tween 80.
(§2) The mycobacterial strains used were obtained from the DSM (German Collection of Microorganisms, Braunschweig). They were incubated at 37° C. in a humid chamber.
(§3) The MICs were read off after 2-4 days when the preparation-free controls had become cloudy as a result of growth.

[2] = test system: Mycobacterium smegmatis DSM 43061; test: as above; settings: Mycolicibacterium smegmatis, DSM43061
Protocol: as §1, §2, §3

[3] = test system: E. coli Neumann; test: MIC by serial dilution on Iso-Sensitest agar; settings: Escherichia coli
Protocol: (§4) The minimum inhibitory concentrations (MICs) were determined by serial dilution tests on Iso-Sensitest agar (Oxoid). For each test substance, a number of agar plates were prepared which contained decreasing concentrations of the active compound. The agar plates were inoculates using a multipoint inoculator (Denley). For inoculation, overnight cultures of the pathogenic organisms were used which had previously been diluted such that each inoculation point contained about 10^4 colony-forming particles. The inoculated agar plates were incubated at 37° C., and the microorganism growth was read off after about 20 hours. The MICs (μg/ml) indicates the lowest active compound concentration at which no growth could be detected using the naked eye.

[4] = test system: Staph. 9TV; test: MIC by serial dilution on Iso-Sensitest agar
Protocol: as §4

[5] = test system: Psdm. Bonn; test: MIC by serial dilution on Iso-Sensitest agar
Protocol: as §4

[6] = test system: Staph. 25701; test: MIC by serial dilution on Iso-Sensitest agar; settings: 37° C., about 20 hours
Protocol: as §4

[7] = test system: Staph. 48N; test: MIC by serial dilution on Iso-Sensitest agar; settings: 37° C., about 20 hours
Protocol: as §4

[8] = test system: Klebs. 57 USA; test: MIC by serial dilution on Iso-Sensitest agar
Protocol: as §4

[9] = test system: Staph. 133; test: MIC by serial dilution on Iso-Sensitest agar; settings: 37° C., about 20 hours
Protocol: as §4

[10] = DSM 43465, brain-heart extract medium with 0.1% Tween 80, 37° C., 2-4 days, read-out: MIC
[11] = DSM 43061, brain-heart extract medium with 0.1% Tween 80, 37° C., 2-4 days, read-out: MIC
[12] = Staph. 9TV, 37° C., about 20 hours, read-out: MIC
[13] = E. coli Neumann, 37° C., about 20 hours, read-out: MIC
[14] = Psdm. Bonn, 37° C., about 20 hours, read-out: MIC
[15] = Klebs. 57 USA, 37° C., about 20 hours, read-out: MIC

MIC [3, 13] [µg/mL] | MIC [5, 14] [µg/mL] | MIC [8, 15] [µg/mL] | SMILES | MIC [1, 10] [µg/mL] | MIC [2, 11] [µg/mL] | MIC ([3]; 20 h) [µg/mL] | MIC [4, 12] [µg/mL] | MIC ([5]; 20 h) [µg/mL] | MIC [6] [µg/mL] | MIC [7] [µg/mL] | MIC ([8]; 20 h) [µg/mL] | MIC [9] [µg/mL] | MIC [1] [µg/mL] | MIC [2] [µg/mL] | MIC ([4]; 20 h) [µg/mL]
 |  |  | CC(=O)NCC1CN(c2cnc3c(c2)oc(=O)n3C)C(=O)O1 (stereo not shown) [Example 10, 5-Acetylaminomethyl-3-(3-methyloxazolo[4,5-b]-pyridin-2(3H)-on-6yl)oxazolidin-2-one] | 4 (≈ 13.1 µM) | 4 (≈ 13.1 µM) | > 64 | 4 (≈ 13.1 µM) | > 64 | 8 (≈ 26.1 µM) | 8 (≈ 26.1 µM) | > 64 |  |  |  | 
> 64 | > 64 | > 64 | COC(=O)NCC1CN(c2cnc3c(c2)oc(=O)n3C)C(=O)O1 (racemic) [Example 13] | 8 (≈ 24.8 µM) | 8 (≈ 24.8 µM) |  | 4 (≈ 12.4 µM) |  | 8 (≈ 24.8 µM) | 8 (≈ 24.8 µM) |  | 8 (≈ 24.8 µM) |  |  | 
> 64 | > 64 | > 64 | CC(=O)NC[C@H]1CN(c2ccc3nc(C)sc3n2)C(=O)O1 [Example 14] |  |  |  | 2 (≈ 6.53 µM) |  | 4 (≈ 13.1 µM) | 8 (≈ 26.1 µM) |  | 4 (≈ 13.1 µM) |  |  | 
 |  |  | [H]/N=C(/N)N[C@H]1[C@H](O)[C@@H](O)[C@H](O[C@@H]2O[C@@H](C)[C@](O)(C=O)[C@H]2O[C@@H]2O[C@@H](CO)[C@H](O)[C@@H](O)[C@@H]2NC)[C@@H](N/C(N)=N\[H])[C@@H]1O [Streptomycin, reference compound] |  |  |  |  |  |  |  |  |  | 4 (≈ 6.88 µM) | 4 (≈ 6.88 µM) | 
 |  |  | Cn1c(=O)oc2cc(N3CC(CNC(=O)C4CC4)OC3=O)cnc21 (racemic) [Example 11] | 4 (≈ 12 µM) | 8 (≈ 24.1 µM) | > 64 | 4 (≈ 12 µM) | > 64 | 8 (≈ 24.1 µM) | 8 (≈ 24.1 µM) | > 64 | 8 (≈ 24.1 µM) |  |  | 
 |  |  | NNC(=O)c1ccncc1 [Isoniazide, reference compound] | 1 (≈ 7.29 µM) | 4 (≈ 29.2 µM) |  |  |  |  |  |  |  |  |  | 

SMILES | MIC [3, 13] [µg/mL] | MIC [5, 14] [µg/mL] | MIC [8, 15] [µg/mL] | MIC [1, 10] [µg/mL] | MIC [2, 11] [µg/mL] | MIC ([3]; 20 h) [µg/mL] | MIC [4, 12] [µg/mL] | MIC ([5]; 20 h) [µg/mL] | MIC [6] [µg/mL] | MIC [7] [µg/mL] | MIC ([8]; 20 h) [µg/mL] | MIC [9] [µg/mL] | MIC [1] [µg/mL] | MIC [2] [µg/mL] | MIC ([4]; 20 h) [µg/mL]
CCC(=O)NCC1CN(c2cnc3c(c2)oc(=O)n3C)C(=O)O1 (racemic) [Example 12] | > 64 | > 64 | > 64 |  |  |  |  |  | 8 (≈ 25 µM) | 8 (≈ 25 µM) |  | 8 (≈ 25 µM) | 4 (≈ 12.5 µM) | 4 (≈ 12.5 µM) | 4 (≈ 12.5 µM)

From patent US5869659A, “Heteroatom-containing cyclopentanopyridyl-oxazolidinones” (Bayer Aktiengesellschaft, priority 1996, dated 1999)
